According to patent US20130296250A1, “METHOD FOR TREATMENT OF PSORIASIS” (priority 2011, published 2013):
The star is where a group is joined. Myristoyl = CCCCCCCCCCCCCC(=O)*

What was measured:
[1] = system: Keratinocytes derived from newborn C57BL/6 mice skin; assay: Cytokine secretion in LPS activated keratinocytes, Luminex; assay type: cell-based; settings: peptide inhibitors, FIGS. 19 to 23
Source text: Resident skin cells and immunological cells (both resident and infiltrating cells) interact in the inflammatory psoriatic process by cell-cell interactions and cytokine secretion. Thus, HO/02/10 was examined for its direct effect on the secretion of pro-inflammatory, chemoattractant and immunological pathway related cytokines form both keratinocytes and immune cells such as macrophages and dendritic cells.
The results of FIGS. 17A and 17B show the effect of HO/02/10 on cytokine secretion in keratinocytes. Keratinocytes were derived from newborn C57BL/6 mice skin. The cells were incubated for 5 days in 24 wells plates. Cells were then treated with DPBS−/−, LPS (100 ng/ml), or HO/02/10 (1 μg/ml)+LPS ([…]). Medium containing secreted cytokines was collected after 48 hr and analyzed using a Luminex system.

[2] = system: TNFα activated keratinocytes; assay: Cytokine secretion in TNFα activated keratinocytes; assay type: cell-based; settings: peptide inhibitors, FIGS. 19 to 23
[3] = system: IL-17A activated keratinocytes; assay: Cytokine secretion in IL-17A activated keratinocytes; assay type: cell-based; settings: peptide inhibitors, FIGS. 24 to 27
C57BL/6J mouse [4] = assay: Macrophage infiltration in wound, Iba-1 staining; assay type: in vivo; settings: daily treatment, five days post-wounding
Experimental: The effect of MPDY-1 on macrophage infiltration was also shown by Iba-1 staining. Iba-1 is a general marker for macrophages. […] As above, a two-cm longitudinal incision was done on the upper back of a C57BL/6J mouse. Following wounding, a sterile pad was sutured to the mouse's skin. Animals were treated daily with MPDY-1 (n=6). Five days post-wounding, when inflammatory phase reaches its peak, the mice were sacrificed, skin tissues were embedded in paraffin and immunohistochemical staining was performed utilizing anti-Iba-1 antibodies.

C57BL/6J mouse [5] = assay: Macrophage activation in wound, MAC-2 staining; assay type: in vivo; settings: daily treatment, 5 days; 1, 10 and 100 micrograms per mL
Experimental: The effect of MPDY-1 on macrophage activation was also shown by MAC-2 staining. MAC-2 is a specific marker for activated macrophages. […] A two-cm longitudinal incision was done as described above. Animals were treated daily with DPBS^−/− (Control) or MPDY-1 in the specified concentrations (n=6). After 5 days immunohistochemical staining was performed utilizing anti-MAC-2 antibodies. Bar […]. (*p(control Vs. MPDY-1 10 μg)=0.0028).

Substance | cytokine secretion from LPS activated keratinocytes [1] | cytokine secretion from TNFα activated keratinocytes [2] | cytokine secretion from IL-17A activated keratinocytes [3] | macrophage infiltration (Iba-1 positive cells per field) (C57BL/6J mouse [4]) | activation of macrophages (MAC-2 positive cells per field) (C57BL/6J mouse [5])
H-Phe-Ala-Arg-Lys-Gly-Ala-Leu-Arg-Gln-OH-acetate salt (H-FARKGALRQ-OH; also: acetate salt) [PDY-1] | decrease cytokine secretion | decrease cytokine secretion | decrease cytokine secretion |  | 
Myristoyl-Phe-Ala-Arg-Lys-Gly-Ala-Leu-Arg-Gln-OH (Myristoyl-FARKGALRQ-OH; SMILES CCCCCCCCCCCCCC(=O)N[C@@H](Cc1ccccc1)C(=O)N[C@@H](C)C(=O)N[C@@H](CCCNC(=N)N)C(=O)N[C@@H](CCCCN)C(=O)NCC(=O)N[C@@H](C)C(=O)N[C@@H](CC(C)C)C(=O)N[C@@H](CCCNC(=N)N)C(=O)N[C@@H](CCC(N)=O)C(=O)O) [MPDY-1] | decrease cytokine secretion | decrease cytokine secretion | decrease cytokine secretion | dose dependent effect | significantly inhibited
Myristoyl-Phe-Ala-Arg-Lys-Gly-Ala-Leu-OH (Myristoyl-FARKGAL-OH; SMILES CCCCCCCCCCCCCC(=O)N[C@@H](Cc1ccccc1)C(=O)N[C@@H](C)C(=O)N[C@@H](CCCNC(=N)N)C(=O)N[C@@H](CCCCN)C(=O)NCC(=O)N[C@@H](C)C(=O)N[C@@H](CC(C)C)C(=O)O) [MPDY-1 sh] | decrease cytokine secretion | decrease cytokine secretion | decrease cytokine secretion |  | 
